Laboratory results reported in PMC11540844, “Enhancing transcription–replication conflict targets ecDNA-positive cancers” (Nature, 2024).
Where “and” joins values, the source holds several entries; their conditions need not be identical. Equal values may be shown once. Read-outs that look alike come from different tables or passages of the source.

What was measured:
[1] = tested on: SNU16 xenograft tumours; experiment: SNU16 xenograft tumour model, tumour volume; format: in vivo, mice; settings: for tumour volume, individual mice: Infigratinib 15 mg/kg PO QD
Experimental: Animal experiments were performed in accordance with protocols approved by the Charles River Accelerator and Development Lab (CRADL) Institutional Animal Care and Use Committee (protocol no. EB17-010-066). Mice were socially housed in individually ventilated cages on a 12/12 h light/dark cycle with temperatures between 65 and 75 °F and 30–50% humidity. The SNU16 gastric cancer cell line was purchased from ATCC (catalogue no. CRL5974) and maintained in Roswell Park Memorial Institute growth medium (Gibco, catalogue no. 22400-089) supplemented with 10% FBS (Omega Scientific, catalogue no. FB-02). To establish tumours, 1 × 10^6 SNU16 cells in 200 µl of a 1:1 mixture of PBS and Matrigel (Corning, catalogue no. 354234) were given by subcutaneous injection into the right flank of 9-week-old female severe combined immunodeficient beige mice (Envigo, strain code 186). Tumour measurements were taken two to three times per week and body weights were taken daily. Tumour volume measurements were obtained using digital calipers and tumour volumes (mm^3) were determined using the formula: tumour volume = (L × W2)/2, where L is the length/largest tumour diameter and W is the width/shortest tumour diameter, with all tumours collected before reaching 1,500 mm^3. Animals (eight mice per group, which historically allowed for significance determination between vehicle and infigratinib) were randomly assigned to unblinded treatment with vehicle, infigratinib (15 mg kg^−^1 oral (PO) once-daily (QD)), BBI-2779 (30 mg kg^−^1 PO every other day (Q2D)) or the combination of BBI-2779 and infigratinib once average tumour volume was 285 (±10)/mean (±s.e.m.) mm^3. One vehicle tumour was taken down on day 22; the mouse was sacrificed due to large tumour volume. Infigratinib was formulated in a 1:1 mixture of sodium acetate buffer, pH 4.6 and polyethylene glycol 300. BBI-2779 was formulated in 0.5% methylcellulose (Sigma-Aldrich, catalogue no. M0512) and 0.2% Tween 80 (AG Scientific, catalogue no. T-2835) in HyPure Molecular Biology Grade Water (HyClone, catalogue no. SH30538.02). […] Animals were sacrificed 6 h, 24 h or 36 h after the last dose, and tumours were collected for western blot or copy number analysis.

[2] = tested on: SNU16 cells; experiment: Cell viability (CellTiter-Glo); format: cell-based, human; settings: for 3-day Cell Titer Glo relative signal (Source data Ext Fig 10b): Control SNU16, replicates; for IC50: Homo sapiens
Experimental: Cell viability assay was performed using CellTiter-Glo (Promega, catalgoue no. G8461) as previously described. Briefly, cells were seeded into a 384-well plate one day before adding inhibitors. Equal volumes of vehicles or drugs diluted at indicated concentration were added into each well the next day, and the cells were incubated for three days. On the third day, after equilibrating plate and CellTiter-Glo reagent at room temperature for 30 min, reagent was added into each well and incubated for 15 min at room temperature. Luminescence was measured using a Synergy 2 microplate reader. Four biological replicates were performed for each condition. Data analysis was performed with GraphPad Prism (v.9.1.0). […]

[3] = tested on: FGFR2 copy number in SNU16 cells; experiment: qPCR quantification of FGFR2 oncogene number in SNU16 cells; format: cell-based, human; settings: 8.0 weeks of infigratinib
Source text: (§1) Nuclear staining is illustrated using DAPI (blue). […] Scale bar represents 10 µm. (b) Timeline of experimental overview. […] Lane 1 (control) is from a non-contiguous portion of the gel from lanes 2 and 3 (infigratinib treated samples).

[4] = tested on: FGFR2 copy number; experiment: FGFR2 copy number by qPCR on xenograft tumour DNA; format: in vivo, mice; settings: infigratinib 15 mg kg-1 PO QD
Experimental: For copy number analysis, tumours were cut into 10–20 mg pieces and flash-frozen in liquid nitrogen. DNA was extracted using the QIAcube DNA Extraction Kit (Qiagen, no. 51331). Briefly, a mixture of buffer ATL and proteinase K was added to the frozen tumour pieces, and they were set out to equilibrate to room temperature. Tumours were then vortexed for 30 s and placed into an incubator at 56 °C to digest overnight. The next morning, an additional 150 μl of buffer ATL was added and samples vortexed for an additional 30 s to reduce the viscosity of the samples before transfer to the S block. Qiagen protocol for the 96 QIAcube HT was followed for the remainder of the DNA isolation. Purified DNA was quantified for the presence of double-stranded DNA on the QIAxpert (Qiagen, catalogue no. 9002340). The DNA was diluted to 5 ng µl^−^1 (5× working stock) in RNase/DNase free water (Thermo Fisher Scientific, catalogue no. 10977015) and 2 µl was loaded into a 384-well plate. […]

[5] = tested on: infigratinib-resistant SNU16 cells; experiment: 3-day Cell Titer Glo in SNU16 cells after 8 weeks of infigratinib; format: cell-based, human; settings: for 3-day Cell Titer Glo relative signal (Source data Ext Fig 10b): infi-intermed 8 wk SNU16, replicates
Source text: as §1

## CCN1CCN(c2ccc(Nc3cc(N(C)C(=O)Nc4c(Cl)c(OC)cc(OC)c4Cl)ncn3)cc2)CC1 [infigratinib]
[1]; day of study 1
  tumour volume, individual mice: 275.78 mm^3 and 318.63 mm^3 and 234.6 mm^3 and 333.76 mm^3 and 272.35 mm^3 and 399.19 mm^3 and 215.35 mm^3 and 244.48 mm^3
[1]; day of study 5
  tumour volume, individual mice: 207 mm^3 and 207.01 mm^3 and 194.06 mm^3 and 114.59 mm^3 and 223.51 mm^3 and 272.2 mm^3 and 162.32 mm^3 and 141.42 mm^3
[1]; day of study 8
  tumour volume, individual mice: 138.07 mm^3 and 126.44 mm^3 and 146.81 mm^3 and 70.82 mm^3 and 180.25 mm^3 and 231.85 mm^3 and 107.33 mm^3 and 100.66 mm^3
[1]; day of study 11
  tumour volume, individual mice: 156.25 mm^3 and 176.04 mm^3 and 166.7 mm^3 and 123.46 mm^3 and 218.18 mm^3 and 282.27 mm^3 and 116.93 mm^3 and 111.73 mm^3
[1]; day of study 13
  tumour volume, individual mice: 172.17 mm^3 and 176.87 mm^3 and 188.21 mm^3 and 133.63 mm^3 and 270.33 mm^3 and 330.51 mm^3 and 108.35 mm^3 and 124.21 mm^3
[1]; day of study 15
  tumour volume, individual mice: 126.09 mm^3 and 205.17 mm^3 and 263.36 mm^3 and 166 mm^3 and 337.92 mm^3 and 367.94 mm^3 and 166.72 mm^3 and 154.6 mm^3
[1]; day of study 18
  tumour volume, individual mice: 157.95 mm^3 and 204.33 mm^3 and 255.64 mm^3 and 193.27 mm^3 and 380.93 mm^3 and 448.61 mm^3 and 202.33 mm^3 and 176.11 mm^3
[1]; day of study 20
  tumour volume, individual mice: 165.11 mm^3 and 203.59 mm^3 and 221.67 mm^3 and 192.93 mm^3 and 417.82 mm^3 and 479.35 mm^3 and 231.86 mm^3 and 168.05 mm^3
[1]; day of study 22
  tumour volume, individual mice: 223.01 mm^3 and 251.01 mm^3 and 223.64 mm^3 and 246.07 mm^3 and 397.26 mm^3 and 479.73 mm^3 and 254.62 mm^3 and 184.76 mm^3
[1]; day of study 25
  tumour volume, individual mice: 231.38 mm^3 and 244.62 mm^3 and 333.8 mm^3 and 257.4 mm^3 and 426.98 mm^3 and 499.94 mm^3 and 237.29 mm^3 and 196.21 mm^3
[1]; day of study 27
  tumour volume, individual mice: 227.44 mm^3 and 236.39 mm^3 and 325 mm^3 and 271.28 mm^3 and 505.17 mm^3 and 681.55 mm^3 and 273.5 mm^3 and 238.76 mm^3
[1]; infigratinib 15 mg kg^−1 PO QD, day 25, vs vehicle, P < 0.0005
  mean per cent tumour growth inhibition: 97%
[2]; 0.152416 nM infigratinib
  3-day Cell Titer Glo relative signal (Source data Ext Fig 10b): 1.0456 and 1.0233
[2]; 0.457247 nM infigratinib
  3-day Cell Titer Glo relative signal (Source data Ext Fig 10b): 0.9513 and 0.976
[2]; 1.37174 nM infigratinib
  3-day Cell Titer Glo relative signal (Source data Ext Fig 10b): 0.9221 and 0.9386
[2]; 4.11523 nM infigratinib
  3-day Cell Titer Glo relative signal (Source data Ext Fig 10b): 0.7516 and 0.791
[2]; 12.3457 nM infigratinib
  3-day Cell Titer Glo relative signal (Source data Ext Fig 10b): 0.4353 and 0.4209
[2]; 37.037 nM infigratinib
  3-day Cell Titer Glo relative signal (Source data Ext Fig 10b): 0.1753 and 0.1537
[2]; 111.111 nM infigratinib
  3-day Cell Titer Glo relative signal (Source data Ext Fig 10b): 0.1409 and 0.1325
[2]; 333.333 nM infigratinib
  3-day Cell Titer Glo relative signal (Source data Ext Fig 10b): 0.1569 and 0.1376
[2]; 1000 nM infigratinib
  3-day Cell Titer Glo relative signal (Source data Ext Fig 10b): 0.1554 and 0.1292
[2]; SNU-16, 72 h, control SNU16 cells, 3-day Cell Titer Glo, Extended Data Fig. 10b, read-out: "IC50" control
  IC50: 7.85 nM
[2]; SNU-16, SNU16 cells, Extended Data Fig. 10, read-out: IC50 (EC50 dose used for 8 weeks of treatment)
  IC50: 25 nM
[3]
  FGFR2 CN: 332.123
[4]
  FGFR2 copy number by qPCR on tumour DNA, individual tumours: 356.837 and 338.53 and 324.931 and 257.5 and 276.141 and 331.223 and 308.687 and 333.495
[5]; Homo sapiens, SNU-16, SNU16 after 8 weeks of infigratinib, 3-day Cell Titer Glo
  IC50: 30.1 nM
[5]; 0.152416 nM infigratinib
  3-day Cell Titer Glo relative signal (Source data Ext Fig 10b): 0.9851 and 1.028
[5]; 0.457247 nM infigratinib
  3-day Cell Titer Glo relative signal (Source data Ext Fig 10b): 1.032 and 1.122
[5]; 1.37174 nM infigratinib
  3-day Cell Titer Glo relative signal (Source data Ext Fig 10b): 1.185 and 1.134
[5]; 4.11523 nM infigratinib
  3-day Cell Titer Glo relative signal (Source data Ext Fig 10b): 1.087 and 1.319
[5]; 12.3457 nM infigratinib
  3-day Cell Titer Glo relative signal (Source data Ext Fig 10b): 1.111 and 1.106
[5]; 37.037 nM infigratinib
  3-day Cell Titer Glo relative signal (Source data Ext Fig 10b): 0.3322 and 0.3782
[5]; 111.111 nM infigratinib
  3-day Cell Titer Glo relative signal (Source data Ext Fig 10b): 0.158 and 0.1671
[5]; 333.333 nM infigratinib
  3-day Cell Titer Glo relative signal (Source data Ext Fig 10b): 0.14 and 0.158
[5]; 1000 nM infigratinib
  3-day Cell Titer Glo relative signal (Source data Ext Fig 10b): 0.1637 and 0.1685
